Data as given in PubChem BioAssay (NCI).
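Values below derive from 48-hour exposures of cells grown in 96-well plates, with endpoints linearly interpolated between the two concentrations bracketing the appropriate inhibition level. GI50 marks 50% less growth. TGI marks complete inhibition of growth.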

Columns and labels:
Test in all cases: inhibition of tumour cell growth, NCI panel, 48 h
UO-31 renal = system: UO-31 renal
K-562 leukemia = system: K-562 leukemia
MDA-MB-231 breast = system: MDA-MB-231 breast
786-0 renal = system: 786-0 renal
NCI/ADR-RES ovarian = system: NCI/ADR-RES ovarian
HL-60(TB) leukemia = system: HL-60(TB) leukemia
ACHN renal = system: ACHN renal
MDA-MB-435 = system: MDA-MB-435
SK-MEL-5 melanoma = system: SK-MEL-5 melanoma
TK-10 renal = system: TK-10 renal
HCT-15 colon = system: HCT-15 colon
SF-268 CNS = system: SF-268 CNS
BT-549 breast = system: BT-549 breast
SK-OV-3 ovarian = system: SK-OV-3 ovarian
MOLT-4 leukemia = system: MOLT-4 leukemia
RPMI-8226 leukemia = system: RPMI-8226 leukemia
OVCAR-3 ovarian = system: OVCAR-3 ovarian
SF-295 CNS = system: SF-295 CNS
U251 CNS = system: U251 CNS
OVCAR-4 ovarian = system: OVCAR-4 ovarian
HCT-116 colon = system: HCT-116 colon
CCRF-CEM leukemia = system: CCRF-CEM leukemia
EKVX NSCLC = system: EKVX NSCLC
DU-145 prostate = system: DU-145 prostate
SNB-19 CNS = system: SNB-19 CNS
A498 renal = system: A498 renal
HS 578T breast = system: HS 578T breast
M14 melanoma = system: M14 melanoma

**Q.** CN(C)CCCNc1c2ccc(Cl)cc2nc2c1oc1ccccc12 was tested. Which GI50 (UO-31 renal) did it give?
**A.** Its GI50 is 2.09 µM.

**Q.** And the TGI (UO-31 renal)?
**A.** Its TGI is 12.8 µM.

**Q.** And the GI50 (K-562 leukemia)?
**A.** Its GI50 is 2.02 µM.

**Q.** What about the TGI (K-562 leukemia) of the same molecule?
**A.** The TGI was 11.7 µM.

**Q.** And the GI50 (MDA-MB-231 breast)?
**A.** Its GI50 is 2.44 µM.

**Q.** What about the TGI (MDA-MB-231 breast) of the same molecule?
**A.** The TGI was 8.61 µM.

**Q.** What about the GI50 (786-0 renal) of the same molecule?
**A.** Its GI50 is 3.2 µM.

**Q.** And the TGI (786-0 renal)?
**A.** Its TGI is 14.2 µM.

**Q.** And the GI50 (NCI/ADR-RES ovarian)?
**A.** The GI50 was 1.91 µM.

**Q.** What about the TGI (NCI/ADR-RES ovarian) of the same molecule?
**A.** The TGI was 12.6 µM.

**Q.** And the GI50 (HL-60(TB) leukemia)?
**A.** Its GI50 is 2.52 µM.

**Q.** What about the TGI (HL-60(TB) leukemia) of the same molecule?
**A.** The TGI was 8.94 µM.

**Q.** What about the GI50 (ACHN renal) of the same molecule?
**A.** The GI50 was 1.78 µM.

**Q.** What about the TGI (ACHN renal) of the same molecule?
**A.** The TGI was 12.2 µM.

**Q.** And the GI50 (MDA-MB-435)?
**A.** The GI50 was 1.65 µM.

**Q.** What about the TGI (MDA-MB-435) of the same molecule?
**A.** Its TGI is 3.32 µM.

**Q.** And the GI50 (SK-MEL-5 melanoma)?
**A.** Its GI50 is 10.6 µM.

**Q.** What about the TGI (SK-MEL-5 melanoma) of the same molecule?
**A.** The TGI was 23.8 µM.

**Q.** What about the GI50 (TK-10 renal) of the same molecule?
**A.** The GI50 was 4.19 µM.

**Q.** And the TGI (TK-10 renal)?
**A.** Its TGI is 22.1 µM.

**Q.** What about the GI50 (HCT-15 colon) of the same molecule?
**A.** Its GI50 is 2.35 µM.

**Q.** What about the TGI (HCT-15 colon) of the same molecule?
**A.** The TGI was 11.1 µM.

**Q.** And the GI50 (SF-268 CNS)?
**A.** Its GI50 is 2.54 µM.

**Q.** And the TGI (SF-268 CNS)?
**A.** Its TGI is 12.1 µM.

**Q.** And the GI50 (BT-549 breast)?
**A.** The GI50 was 4.12 µM.

**Q.** What about the TGI (BT-549 breast) of the same molecule?
**A.** The TGI was 14.4 µM.

**Q.** And the GI50 (SK-OV-3 ovarian)?
**A.** The GI50 was 3.04 µM.

**Q.** What about the TGI (SK-OV-3 ovarian) of the same molecule?
**A.** The TGI was 11.2 µM.

**Q.** And the GI50 (MOLT-4 leukemia)?
**A.** Its GI50 is 0.676 µM.

**Q.** And the TGI (MOLT-4 leukemia)?
**A.** The TGI was 13.2 µM.

**Q.** What about the GI50 (RPMI-8226 leukemia) of the same molecule?
**A.** Its GI50 is 2.27 µM.

**Q.** What about the TGI (RPMI-8226 leukemia) of the same molecule?
**A.** Its TGI is 5.94 µM.

**Q.** And the GI50 (OVCAR-3 ovarian)?
**A.** Its GI50 is 3.45 µM.

**Q.** And the TGI (OVCAR-3 ovarian)?
**A.** Its TGI is 15.6 µM.

**Q.** What about the GI50 (SF-295 CNS) of the same molecule?
**A.** Its GI50 is 3.41 µM.

**Q.** What about the TGI (SF-295 CNS) of the same molecule?
**A.** The TGI was 15.3 µM.

**Q.** What about the GI50 (U251 CNS) of the same molecule?
**A.** The GI50 was 2.69 µM.

**Q.** What about the TGI (U251 CNS) of the same molecule?
**A.** The TGI was 10.3 µM.

**Q.** And the GI50 (OVCAR-4 ovarian)?
**A.** Its GI50 is 2.12 µM.

**Q.** What about the TGI (OVCAR-4 ovarian) of the same molecule?
**A.** The TGI was 6.89 µM.

**Q.** What about the GI50 (HCT-116 colon) of the same molecule?
**A.** Its GI50 is 1.42 µM.

**Q.** And the TGI (HCT-116 colon)?
**A.** The TGI was 8.19 µM.

**Q.** What about the GI50 (CCRF-CEM leukemia) of the same molecule?
**A.** Its GI50 is 2.57 µM.

**Q.** What about the TGI (CCRF-CEM leukemia) of the same molecule?
**A.** The TGI was 10.3 µM.

**Q.** What about the GI50 (EKVX NSCLC) of the same molecule?
**A.** Its GI50 is 3.51 µM.

**Q.** What about the TGI (EKVX NSCLC) of the same molecule?
**A.** Its TGI is 21.3 µM.

**Q.** And the GI50 (DU-145 prostate)?
**A.** The GI50 was 3.49 µM.

**Q.** What about the TGI (DU-145 prostate) of the same molecule?
**A.** The TGI was 79.2 µM.

**Q.** And the GI50 (SNB-19 CNS)?
**A.** Its GI50 is 3.37 µM.

**Q.** What about the TGI (SNB-19 CNS) of the same molecule?
**A.** The TGI was 20.5 µM.

**Q.** What about the GI50 (A498 renal) of the same molecule?
**A.** The GI50 was 7.55 µM.

**Q.** And the TGI (A498 renal)?
**A.** The TGI was 21.2 µM.

**Q.** What about the GI50 (HS 578T breast) of the same molecule?
**A.** The GI50 was 3.53 µM.

**Q.** And the TGI (HS 578T breast)?
**A.** The TGI was 22.2 µM.

**Q.** And the GI50 (M14 melanoma)?
**A.** The GI50 was 1.69 µM.

**Q.** And the TGI (M14 melanoma)?
**A.** The TGI was 3.45 µM.
